Assay results reported in article PMC4226669, “Anti-cancer potency of tasquinimod is enhanced via albumin-binding facilitating increased uptake in the tumor microenvironment” (Oncotarget, 2014).
Entries after “also recorded” stand apart in the source; their conditions may differ. Where two headings read alike, the source gives them in different places.

Columns and labels:
[1] = tested on: human umbilical vein endothelial cells (HUVECs); experiment: 3D in vitro endothelial sprouting and tube formation assay; type: cell-based; settings: for IC50: Homo sapiens, HUVEC, 3D-HUVEC sprouting assay, read-out: IC50 (concentration of drug which inhibits by 50% the endothelial sprouting)
Text: A three-dimensional (3D) in vitro endothelial sprouting and tube formation assay was utilized to define the anti-angiogenic potency of tasquinimod vs. these metabolites. In this 3D assay, human umbilical endothelial cells (i.e., HUVECs) are initially grown on microcarrier beads and the cell coated beads embedded in fibrin gels with media conditioned by normal human lung fibroblasts. Under these 3D-conditions, endothelial cells “sprout” producing 3D neovessel tubes with patent lumen within one week, Figure 4A - left panel. When tasquinimod is added at the initiation to these 3D-cultures, sprouting of the endothelial cells is inhibited, Figure 4B-right panel, with the potency for such inhibition, expressed as an IC50 value (i.e., the concentration of drug which inhibits by 50% the endothelial sprouting) of 0.5 μM, Figure 4C. […] Using this 3D-HUVEC assay, the potency (i.e., expressed as IC50) of tasquinimod metabolites to inhibit endothelial sprouting was compared to tasquinimod. […] To further confirm that tasquinimod itself and not the carboxamide-N-demethylated metabolite is the active drug, the response to ketoconazole alone and in combination with tasquinimod was tested in the 3D-endothelial sprouting assay.
The 3-dimensional (3D) in vitro angiogenic sprouting and tube formation assay was used as described previously. This 3D-endothelial sprouting assay was conducted using a minimum of 5 replicate wells per drug dose per experiment, repeated 3 independent times using human umbilical vein endothelial cells (HUVECs; Lonza Walkersville, Inc.) with modification that 20 μL of 10X concentrated Dulbecco's Modified Eagle's Media/10%FCS media conditioned by confluent human primary lung fibroblasts (Lonza) diluted to 200 μL of growth factor supplemented EGM-2 media (Lonza) was used instead of fibroblast co-culture.

[2] = tested on: CWR-22Rv1 human prostate cancer xenografts; experiment: Dose-response growth inhibition of established CWR-22Rv1 xenografts (subcutaneous daily injection); type: in vivo, mouse; settings: 20 days
Method: To confirm these in vitro results, mice were inoculated subcutaneously (SQ) with CWR-22Rv1 cells and remained untreated until the tumors grew to ~ 200 mm3 (i.e., ~ 200 mgs) and then they were randomly assigned to groups (n=10) which were injected SQ daily with 100 μl of propylene glycol vehicle only vs. vehicle delivering 0.1 or 1 mg/kg/day of either tasquinimod or its carboxamide-N-demethylated metabolite. Propylene glycol was used as vehicle due to the low water solubility of the carboxamide-N-demethylated metabolite. After 20 days of continuous treatment, the experiment was terminated and the total weight of each cancer determined and the results expressed both as average tumor weight in grams and as the ratio of the weight of the cancers in the treated vs. vehicle control animals (i.e., T/C ratio), Figure 5A.
(§1) The source, history, and characteristics of the human prostate cancer cell lines (i.e., LNCaP, LAPC4, and CWR-22Rv1 and the human umbilical vascular endothelial cells (HUVEC) used, as well as cell culture conditions for their in vitro maintenance and the in vivo protocol for their xenografting into immune-deficient nude male mice are as described previously. The source, history, and characteristics of the TRAMP-C2 mouse prostate cancer line, as well as cell culture conditions for their in vitro maintenance and the in vivo protocol for their growth in intact adult male syngeneic C57Bl/6J are as described previously. All lines were mycoplasma negative using the MycoSensor PCR Assay kit (Agilent Technologies) and genetically authenticated within the last 6 months using short tandem repeat profiling conducted by the Johns Hopkins Genetic Resource Core Facility. The source, history, and characteristics of the CWR-RH human prostate cancer xenograft are as described previously. In vitro growth curves were determined as described. Animal studies were conducted according to animal protocol MO09M434 approved by Johns Hopkins Animal Care and Use Committee. Daily drug dosing via oral gavage, the drinking water, or subcutaneous injection, as well as tumor volume measurements and determination of the blood vessel density within cancers, were as described previously. These experiments were repeated at 3 independent times for each xenograft.

[3] = tested on: HUVEC cells; experiment: In vitro cell metabolism in HUVEC; type: in vitro ADME, human; settings: HUVEC exposed to 1 μM 14C-labeled tasquinimod, 48 hours
Method: The nuclear uptake results are consistent with tasquinimod being the active drug for both direct therapeutic effects on cancer cells and indirect effects via suppression of the angiogenic response of host endothelial cells. To confirm these conclusions, the concentration of tasquinimod metabolites produced by endothelial cells was compared to the potency of these metabolites for inhibiting angiogenesis. When HUVEC cells are exposed to 1 μM of ^14C-labeled tasquinimod for 48 hours, < 15% of the drug is metabolized with 10% (i.e., 100 nM) being converted to the quinoline-O-demethylated compound and < 2% (i.e., < 20 nM) being converted to the quinoline-N-demethylated or carboxamide-N-demethylated compounds.
For in vitro studies, cells were incubated with 1μM ^14C-labeled tasquinimod for indicated time period and then the media and cells or cell nuclei separately harvested, deproteinated with acetonitrile, and metabolites separated by HPLC and quantitated as described above.

[4] = Water solubility; type: physicochemical
[5] = Tissue distribution and metabolites in nude mice bearing CWR-22Rv1 cancers; type: in vivo, mouse; settings: 4 hours post oral 5mg/kg tasquinimod; for concentration at 4 h: male, nude, mouse
Method: To determine the concentration of metabolites, nude mice bearing CWR-22Rv1 prostate cancers were orally administered with 5 mg/kg of ^14C- radiolabeled tasquinimod and 4 and 24 hours later, blood plasma and liver, kidney, and cancer tissue harvested and analyzed for determination of metabolites. […] The predominant metabolite is the O-demethylated quinoline compound, Figure 2A&B, but the concentration of the hydroxylated aromatic quinoline and the N-demethylated quinoline compounds, along with the O-demethylated quinoline compound are also higher in the liver than the blood at the time point studied, Figure 2B. Also in the kidney 40% of the drug is present as metabolites, with the concentration of the hydroxylated aromatic quinoline and the O-demethylated quinoline compounds being higher than in the blood, Figure 2B. In contrast, within the cancer > 80% of the total concentration of drug is present as parent tasquinimod, Figure 2B. Only the O-demethylated quinoline compound is present at a higher concentration in the cancer than blood, Figure 2B. The plasma concentration of total metabolites is < 10% at 4 hours, Figure 2B, and 24 hours post oral dosing with 5 mg/kg, Figure 2A.
Male nude mice bearing 200-300mm^3 CWR-22Rv1 cancers were given ^14C-labeled tasquinimod at a dose of 5 mg/kg via oral gavage. At times ranging from 30 min to 24 hour, groups of 4-6 mice were anaesthetized with ketamine and 1 ml of heparinized blood collected by cardiac puncture, followed by subsequent cardiac perfusion of saline to remove blood associated drug. An aliquot of liver, kidney, and cancer was removed, weighed and then homogenized. The radioactivity in 10 μL aliquots of tissue homogenates and blood plasma was determined using a liquid scintillation counter and used to calculate the total amount of tasquinimod plus its metabolites per gram of tissue or per ml of blood. The remaining sample volume was deproteinated with acetonitrile and the radioactivity of an aliquot of the supernatant determined and the remaining supernatant lyophilized, resuspended initially with 0.1mL dimethyl sulfoxide and diluted by the addition of 0.9mL deionized water prior to injection into the HPLC. The HPLC system consisted of Waters pumps using a Waters gradient controller to deliver mobile phase at a flow rate of 1mL per minute using a Supelcosil ABZ+ C18 column that is 150mm long by 4.6mm diameter and has 5μm particle size. The metabolites were separated using a linear gradient in which the starting mobile phase was 35% acetonitrile: 65% water: 0.1% Trifluoroacetic acid (TFA) increasing to 50% acetonitrile: 50% water: 0.1%TFA over 25 minutes, and then increased rapidly to 98% acetonitrile: 2% water: 0.1%TFA and held until 33 minutes before it is returned to the initial conditions for the next run. Fractions were collected and the radioactivity determined by scintillation counting. As controls, the individual elution time of non-radiolabeled standard solutions of the various tasquinimod metabolites was determined using UV absorption at 215nm. The results were expressed as concentration based upon tissue volume, assuming 1gram wet weight equals 1ml, or normalized to tissue vascular volume.

[6] = tested on: CYP-3A; parameters: method as in PMID 21391977; settings: oral dose of 25mg/kg/day; cited from earlier work
[7] = tested on: CWR-22RH human prostate cancer; experiment: Tumor take of CWR-22RH xenografts in castrated nude mice; type: in vivo, mouse
Method: To confirm this conclusion, castrated male nude mice were xenografted with the castrate resistant CWR-22RH human prostate cancer tissue and the animals immediately randomized into groups (n=10) which were: 1) left untreated as controls; 2) given daily oral treatment with tasquinimod alone via the drinking water (10mg/kg/day); 3) given oral ketoconazole alone via oral gavage at a daily dose which inhibits cytochrome P450 3A4 (i.e., 25 mg/kg/day); or 4) given a combination of the two drugs. […] These combined in vitro/in vivo results document tasquinimod, not one of its metabolites, is the active drug.
as §1

[8] = tested on: CYP-3A; parameters: method as in PMID 15764719; settings: read-out: IC50 for inhibition of CYP-3A; cited from earlier work
[9] = CWR-22Rv1 cancer tissue, CWR-22Rv1 cancer, 1gm tissue = 1ml, read-out: concentration in CWR-22Rv1 cancer
[10] = kidney, 1gm tissue = 1ml, read-out: concentration in kidney
[11] = liver, 1gm tissue = 1ml, read-out: concentration in liver
[12] = plasma, read-out: concentration in plasma

COc1cccc2c1c(O)c(C(=O)Nc1ccc(C(F)(F)F)cc1)c(=O)n2C [Carboxamide-N-demethylate]
IC50 [1]: 0.25 µM
fold more potent than tasquinimod (lower IC50) in inhibiting endothelial sprouting ([1]; relative to tasquinimod): 2 fold
Avg Tumor Weight ([2]; 0.1 mg/kg/day SQ): 0.891 ± 0.263 g
T/C Ratio ([2]; 0.1 mg/kg/day SQ): 0.512
Avg Tumor Weight ([2]; 1 mg/kg/day SQ): 0.724 ± 0.223 g
T/C Ratio ([2]; 1 mg/kg/day SQ): 0.415
concentration of metabolite formed [3]: < 20 nM
fraction of tasquinimod converted to the metabolite [3]: < 2%
water solubility [4]: low
percentage of total drug in CWR-22Rv1 cancer ([5]; CWR-22Rv1 cancer): < 1%
percentage of total drug in kidney ([5]; kidney): < 1%
percentage of total drug in liver ([5]; liver): < 1%
concentration at 4 h [5, 9]: < 30 nM
concentration at 4 h [5, 10]: < 30 nM
concentration at 4 h [5, 11]: < 130 nM
concentration at 4 h [5, 12]: < 60 nM
percentage of total drug in plasma ([5]; plasma): < 1%

COc1cccc2[nH]c(=O)c(C(=O)N(C)c3ccc(C(F)(F)F)cc3)c(O)c12 [Quinoline-N-demethylate]
IC50 [1]: 20 µM
concentration of metabolite formed [3]: < 20 nM
fraction of tasquinimod converted to the metabolite [3]: < 2%
percentage of total drug in CWR-22Rv1 cancer ([5]; CWR-22Rv1 cancer): < 1%
percentage of total drug in kidney ([5]; kidney): < 1%
percentage of total drug in liver ([5]; liver): 2+/-1%
concentration at 4 h [5, 9]: < 30 nM
concentration at 4 h [5, 10]: < 30 nM
concentration at 4 h [5, 11]: 260 nM
concentration at 4 h [5, 12]: < 60 nM
percentage of total drug in plasma ([5]; plasma): < 1%

CN(C(=O)c1c(O)c2c(O)cccc2n(C)c1=O)c1ccc(C(F)(F)F)cc1 [Quinoline-O-demethylate]
IC50 [1]: 30 µM
concentration of metabolite formed [3]: 100 nM
fraction of tasquinimod converted to the metabolite [3]: 10%
percentage of total drug in CWR-22Rv1 cancer ([5]; CWR-22Rv1 cancer): 17+/- 4%
percentage of total drug in kidney ([5]; kidney): 36+/-4%
percentage of total drug in liver ([5]; liver): 62+/-7%
concentration at 4 h [5, 9]: 460 nM
concentration at 4 h [5, 10]: 1400 nM
concentration at 4 h [5, 11]: 8100 nM
concentration at 4 h [5, 12]: 300 nM
percentage of total drug in plasma ([5]; plasma): 5+/-1%

CC(=O)N1CCN(c2ccc(OCC3COC(Cn4ccnc4)(c4ccc(Cl)cc4Cl)O3)cc2)CC1 (stereo not drawn) [ketoconazole]
inhibition of CYP-3A [6]: > 90%
effect of ketoconazole on anti-cancer efficacy of tasquinimod ([7]; ketoconazole 25 mg/kg/day combined with tasquinimod 10mg/kg/day): does not affect; also recorded: does not inhibit the therapeutic efficacy of tasquinimod; also recorded: does not suppress
tumor take and growth ([7]; ketoconazole alone 25 mg/kg/day via oral gavage from inoculation): does not inhibit either the take or growth
effect of ketoconazole on tasquinimod's inhibition of 3D HUVEC sprouting ([1]; 10 μM ketoconazole simultaneously present with 1 μM tasquinimod): does not affect; also recorded: does not prevent inhibition; also recorded: does not suppress
inhibition of endothelial sprouting ([1]; ketoconazole alone, 10 μM): did not inhibit
